Results: article PMC6600181, “Reversal of MK-801-Induced Disruptions in Social Interactions and Working Memory with Simultaneous Administration of LY487379 and VU152100 in Mice” (International Journal of Molecular Sciences, 2019)

Key:
MK-801-treated mice [1] = test: Social interaction test (MK-801-induced disruptions); assay type: in vivo, mice (male CD1); conditions: for treatment of deficits in social interactions induced by prolonged MK-801: compounds acutely 24 h later, 30 min before test, LY487379 0.25, 0.5, 1 mg/kg, VU152100 0.1, 0.25, 5 mg/kg; for prevention of MK-801-induced deficits in social interactions: acute, 30 min before acute MK-801
Protocol: (§1) Schedules of administration are presented graphically in Figure 1. […] Different vehicles were used throughout the study: (1) 0.9% NaCl, (2) 10% Tween 80 or (3) 10% Tween 80 containing 2% DMSO. Vehicles were administered to all animals (e.g., control mice, MK-801-treated mice) in the same schedule as drugs were administered to the drug-treated appropriate groups of mice.
(§2) Male CD1 mice (Charles River, Germany) weighing 20–25 g at the time of arrival were used in behavioural experiments. Animals were kept in standard laboratory cages T3 (265 × 420 × 180 mm, with an area of 825 cm^2), grouped at 10 mice per cage. Animals were kept under standard laboratory conditions (12:12 light:dark cycle, 21–22 °C) with free access to food and water. Animal welfare has been regularly controlled by a veterinarian and animal welfare committee. After 3–4 weeks of acclimatization and handling, the experiments began. Experimental groups consisted of 8 to 10 animals, depending on the procedure. Drugs were administered intraperitoneally (i.p.) at a volume of 10 mL/kg. Experimental assessments were performed by an observer who was blinded to treatment conditions. All procedures described herein were conducted in accordance with the European Communities Council Directive of 22 September 2010 (2010/63/EU) and Polish legislation acts concerning animal experimentation and were approved by the II Local Ethics Committee by the Institute of Pharmacology, Polish Academy of Sciences in Krakow (18/2019, 21.01.2019).
This procedure was adapted from de Moura Linck et al. and performed as described in our previous papers. Habituation and test trials were performed in a black plastic rectangular arena (40 × 30 × 35 cm) illuminated with a light intensity of 335 lux. During the habituation trial (2 consecutive days), each animal was allowed to explore the arena for 10 min. The test trial was conducted the following day, during which body-weight-matched mice (± 10% difference) from two different cages were placed into the arena for 10 min. Social interactions between the two mice were determined based on the total time spent participating in social behaviours, such as sniffing, genital investigation and chasing.

MK-801-treated mice [2] = test: Novel object recognition test (MK-801-induced disruptions); assay type: in vivo, mice (male CD1); conditions: for treatment of deficits in novel object recognition induced by prolonged MK-801: compounds acutely 24 h later, 30 min before test, LY487379 0.1, 0.5, 1 mg/kg, VU152100 0.1, 0.25, 1 mg/kg; for prevention of MK-801-induced disruptions in object recognition: acute, 30 min before acute MK-801
Protocol: as §1, §2
This procedure was adapted from Nilsson et al. and performed as described in a variety of our previous papers. Habituation, training and test trials were performed in a black plastic rectangular arena (40 × 30 × 35 cm) illuminated with a light intensity of 335 lux. During the habituation trial (2 consecutive days), each animal was allowed to explore the arena for 10 min. The next day, during the training trial (T1), mice were placed in the arena and were presented with two identical objects (red glass cylinder; 6.5 cm in diameter and 4.5 cm high) for 5 min. After 1 h, animals were placed back into the arena for a 5 min test trial, during which one of the previously presented familiar objects was replaced with a novel object (a transparent glass elongated sphere-like object with an orange cap; 5.5 cm in diameter and 8.5 cm high). Time spent exploring (i.e., sniffing or touching) the familiar (Tfamiliar) and novel (Tnovel) objects was measured by a trained observer, and the recognition index [%] was calculated for each mouse [(Tnovel – Tfamiliar)/(Tfamiliar + Tnovel)] * 100.

MK-801-treated mice [3] = test system: MK-801-treated mice; design: method as in PMID 30054675; conditions: acute MK-801 model; cited from earlier work
MK-801-treated mice [4] = test system: MK-801-treated mice; design: method as in PMID 30054675; conditions: acute MK-801 model; cited from earlier work; remark: listed apart in the source

SMILES | treatment of deficits in social interactions induced by prolonged MK-801 (MK-801-treated mice [1]; MK-801 0.3 mg/kg for 7 days) | effect on social behaviour when given alone (MK-801-treated mice [1]; compound alone, without MK-801) | prevention of MK-801-induced deficits in social interactions (MK-801-treated mice [1]; dose 0.5 mg/kg i.p.) | prevention of MK-801-induced deficits in social interactions (MK-801-treated mice [1]; doses of 1 and 3 mg/kg i.p.) | treatment of deficits in novel object recognition induced by prolonged MK-801 (MK-801-treated mice [2]; MK-801 0.3 mg/kg for 7 days) | effect on learning abilities when given alone (MK-801-treated mice [2]; compound alone, without MK-801) | prevention of MK-801-induced disruptions in object recognition (MK-801-treated mice [2]; dose 0.5 mg/kg i.p.) | prevention of MK-801-induced disruptions in object recognition (MK-801-treated mice [2]; doses of 1 and 3 mg/kg i.p.) | induction of deficits in social interactions (MK-801-treated mice [1]; MK-801 0.3 mg/kg for 7 days, observed 24 h after the last injection) | induction of deficits in novel object recognition (MK-801-treated mice [2]; MK-801 0.3 mg/kg for 7 days, observed 24 h after the last administration) | sub-effective dose in novel object recognition (MK-801-treated mice [3]) | sub-effective dose in social interaction (MK-801-treated mice [4])
COc1ccccc1Oc1ccc(N(Cc2cccnc2)S(=O)(=O)CC(F)(F)F)cc1 [LY487379] | treated MK-801-induced deficits at all administered doses | no effect on social behaviour | ineffective | prevented the MK-801-induced deficits | treated the MK-801-induced deficits at all administered doses | no effect on learning abilities | ineffective | prevented MK-801-induced disruptions in object recognition | – | – | – | –
C[C@]12N[C@H](Cc3ccccc31)c1ccccc12 [MK-801] | – | – | – | – | – | – | – | – | induced deficits in social interactions | induced deficits in the novel object recognition paradigm | – | –
COc1ccc(CNC(=O)c2sc3nc(C)cc(C)c3c2N)cc1 [VU152100] | treated MK-801-induced deficits at all administered doses | – | – | – | treated the MK-801-induced deficits at all administered doses | – | – | – | – | – | 0.25 mg/kg | 0.5 mg/kg
